Patent US20180228811A1, “GDNF INDUCTION FOR THE TREATMENT OF RETINAL DISORDERS” (THE SCHEPENS EYE RESEARCH INSTITUTE, INC., priority 2014, published 2018)
Where “and” joins values, the source holds several entries; their conditions need not be identical. Equal values may be shown once. Entries after “also recorded” stand apart in the source; their conditions may differ.

How the values were obtained:
photoreceptors = assay: Photoreceptor rescue by Compound I suspension in rhodopsin knockout mice (H&E cell count); format: in vivo, mouse; details: rho-/- mice
Procedure: To study photoreceptor rescue by Compound I suspension (60 mg/ml), 2 ul of suspension (n=5) or Vehicle (n=5) were administered intravitreally to 4-week old rhodopsin knockout mice using a beveled glass needle, connected to a Hamilton syringe through polyethylene tubing. During the injection, corneal paracenthesis was performed to reduce intraocular pressure. 10 weeks after the injection, eyes were enucleated and fixed in Davidson solution for histological processing: paraffin embedding and sectioning. Six micron thick sections were cut in the area close to optic nerve head (ONH) and stained with hematoxylin-eosin (H&E) or processed for immunohistochemical analysis (IHC). H&E-stained sections were imaged (Olympus imaging system DP72) and total photoreceptor number was estimated based on the nuclei count in the outer nuclear layer (ONL). Cells were counted in each 100 um retina span starting from optic nerve head on three sections for each eye (five eyes per group). Total photoreceptor number per section was also calculated.

GDNF [1] = assay: GDNF protein induction in ARPE19 cells (ELISA); format: cell-based, human
Procedure: (§1) GDNF induction […] was assessed using three retinal-specific cell systems: ARPE19, as a model for human retinal pigment epithelium; human retinal progenitor cells (hRPC), as a substitute for human retinal neurons/glia; and mouse eyecups, differentiated from induced pluripotent stem cells. ARPE19 cells are described in Dunn et al., Exp. Eye Res. 62: 155-169, 1996. To study GDNF induction in a human retinal pigment epithelium cell line, ARPE19, thawed ARPE19 cells (passage 33, ATCC) were plated on fibronectin (Akron)-coated plates (Nunc) in stimulation medium at a density of 10 k cells/sq.cm. The flasks were incubated at standard conditions: 37° C., 5% CO2, 100% humidity. Cells were plated 24 hours prior to Compound I treatment and were grown in Ultraculture medium (Lonza), supplemented with 1×MEM NEAA (Gibco), 1× L-glutamine (Gibco), 1× Antibiotic/antimycotic (Gibco), 2 ng/ml bFGF (Peprotech), 1 ng/ml EGF (Peprotech). For qPCR analysis, the experiments were performed in 35 mm Petri dishes in 2 ml of medium with Compound I concentration of 100 nM (DMSO-based solution). Total mRNA was isolated at 0, 15, 30, 60, 120, 240 minutes post stimulation. For protein expression determination by ELISA, the experiments were performed in 96 well plates in 100 ul of medium with each condition (concentrations ranging from 0 to 10 uM) reproduced in 3 wells. For ELISA analysis, plates were removed from out of incubator 24 hours post stimulation and freeze-thawed followed by CHAPS lysis buffer treatment for total mRNA extraction. The ELISA analysis for GDNF was performed using GDNF DuoSet kit (R&D systems) using manufacturer's instructions.

GDNF [2] = assay: GDNF induction by Compound I aqueous solution in wild-type mice; format: in vivo, mouse; details: 3 hours; for GDNF mRNA induction compared to vehicle-treated control: wild type mice; for GDNF protein upregulation compared to untreated control: wildtype mice, vehicle 1.5 fold
Procedure: All animal procedures were performed under general (intraperitoneal ketamine/xylazine) and topical (proparacaine drops) anesthesia. Tropicamide was applied for pupil dilation. After injection, the eye was treated with antibiotic ointment (Bacitracin-Neomycin-Polymyxin). The same procedures were applied to control eyes.
To study GDNF induction by Compound I aqueous solution, 1 ul of 10 uM (n=5) or 100 uM (n=5) water-based Compound I or 1 ul of Vehicle (n=5) was administered intravitreally using beveled glass needle, connected to a Hamilton syringe through polyethylene tubing. During the injection, corneal paracenthesis was performed to reduce intraocular pressure. Compound I was injected into 4-week old wildtype (C57/Bl6, Jackson labs) and rhodopsin knockout (Humphries et al., Nat. Genet. 15, 216-219 (1997)).
Three hours after the injection animals were euthanized using CO2, then the death was confirmed by cervical dislocation. The treated and untreated eyes were enucleated and placed in 250 ul of chilled RNAlater buffer (Qiagen) and stored at 4° C. Later, eyes were excised and total neural retina with retinal pigment epithelium were collected into 400 ul of Lysis buffer (Qiagen RNeasy kit) with 5 mM beta-mercaptoethanol. Total RNA was isolated using RNeasy kit (Qiagen) and eluted with 100 ul of Ultrapure water (Life technologies). All flow through from RNA isolation (˜2.4 ml) was collected and mixed with 10 ml of ice-cold (−20° C.) acetone for protein precipitation. The protein was precipitated at −20° C. for 30 minutes, then pelleted at 3500 rpm for 20 min. Pellets were washed once with 100% ethanol, then reconstituted with 300 ul of RIPA buffer with 0.2 mM 4-benzenesulfonyl fluoride hydrochloride (Tocris). mRNA and protein expression were assessed by qPCR and Western Blot and normalized to GAPDH and βActin. The statistical analysis was performed using a T-test (p<0.05) with Bonferroni post-hoc test.

GDNF mRNA = GDNF mRNA time-course in ARPE19 cells (qPCR); format: cell-based, human; details: ARPE19, 100 nM Compound I, normalized by GAPDH and ßActin
Procedure: as §1, with “For ELISA analysis, plates were removed from out of incubator 24 hours post stimulation and freeze-thawed followed by CHAPS lysis buffer treatment for total mRNA extraction. The ELISA analysis for GDNF was performed using GDNF DuoSet kit (R&D systems) using manufacturer's instructions.” left out

COc1cc2c(cc1S(=O)(=O)c1ccc(OCc3ccc(Cl)cc3)cc1)CCN(C)CC2 [Compound I, 7-[4-(4-chloro-benzyloxy)-benzenesulfonyl]-8-methoxy-3-methyl-2,3,4,5-tetrahydro-1H-3-benzazepine]
increase in photoreceptor cell number pan-retinally compared to uninjected and vehicle (photoreceptors; 2 ul of 60 mg/ml suspension intravitreally at 4 weeks of age, 10 weeks after injection): 2 fold and 2.1 fold | total photoreceptor cells per section (photoreceptors; suspension, 10 weeks after injection, uninjected 516, vehicle 508): 1210 cells per section | retinal pigment epithelium, inner nuclear and ganglion cell layers, histology (photoreceptors; suspension, 10 weeks after the treatment): no changes in the retinal pigment epithelium, inner nuclear or ganglion cell layers | increase in photoreceptor cell number in the area close to the optic nerve head (ONH) (photoreceptors; suspension, 200 micron area): 1.5 fold | outer nuclear layer (ONL), histology (photoreceptors; suspension, compared to vehicle-treated and untreated eyes): preserved; also recorded: significant increase in ONL thickness | photoreceptors per 200 um close to the ONH (photoreceptors; suspension, non-treated 46, vehicle control 39): 63 photoreceptors per 200 um | GDNF induction (GDNF [1]; ARPE19): More than 2 fold | GDNF induction, result in words (GDNF [1]; ARPE19, 0 to 10 uM): Significant dose-dependent GDNF induction | concentration of Compound I at which GDNF was upregulated (GDNF [1]; ARPE19, ELISA, FIG. 1C): 3 µM | increase of GDNF protein levels in vitro (GDNF [1]; in vitro, cell system not stated (mRNA was measured in ARPE19 only)): 1.8 fold | GDNF mRNA induction compared to vehicle-treated control (GDNF [2]; 1 ul of 10 uM solution intravitreally): 1.3 fold | GDNF mRNA induction compared to vehicle-treated control (GDNF [2]; 1 ul of 100 uM solution intravitreally): 1.9 fold | GDNF protein upregulation compared to untreated control (GDNF [2]; 10 uM solution intravitreally): 2.3 fold | GDNF protein upregulation compared to untreated control (GDNF [2]; 100 uM solution intravitreally): 2.3 fold | time of GDNF mRNA peak after stimulation (GDNF mRNA): 30 min
